Assay results taken from patent US20230339851A1, “CXCR6 SULFONAMIDE COMPOUNDS” (CHEMOCENTRYX, INC., priority 2022, published 2023).

molecular target: T1, human CXCR6 (Homo sapiens, UniProt O00574); experiment: Radioligand Binding Assay (125I-CXCL16 displacement); details: L1.2 cells stably transfected with human CXCR6 cDNA, 0.1 nM 125I-CXCL16, 4° C., three-hour incubation; read-out: Potency (IC50)
T1 construct: expressed in transfected cells
Procedure, shortened: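 Displacement of 0.1 nM 125I-CXCL16 from human CXCR6 stably expressed in L1.2 cells was measured after a 3 h, 4 °C incubation in HBSS with 0.1% BSA. Filter-bound cpm were counted, and IC50 values came from a 3-parameter nonlinear fit.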

T1 sequence (O00574 whole entry): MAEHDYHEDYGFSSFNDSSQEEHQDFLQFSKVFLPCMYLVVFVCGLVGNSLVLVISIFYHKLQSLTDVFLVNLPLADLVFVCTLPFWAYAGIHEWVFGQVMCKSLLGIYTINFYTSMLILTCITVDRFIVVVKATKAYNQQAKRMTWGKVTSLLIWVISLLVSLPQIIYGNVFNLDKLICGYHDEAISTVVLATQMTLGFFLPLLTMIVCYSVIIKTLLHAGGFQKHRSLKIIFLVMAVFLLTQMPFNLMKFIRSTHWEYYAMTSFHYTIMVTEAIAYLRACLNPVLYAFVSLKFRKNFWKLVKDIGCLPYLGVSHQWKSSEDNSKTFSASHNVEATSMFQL

SMILES	IC50 [nM]
COc1cc(NC(=O)CC2CCOCC2)ccc1S(=O)(=O)Nc1cccc(C(F)(F)F)c1 [Example 1.574]	2000 to 20000
Cc1cc(NC(=O)C2CCCCC2)ccc1S(=O)(=O)Nc1cccc(C(F)(F)F)c1 [Example 1.575]	750 to 2000
CCOc1cc(NC(=O)[C@@H](NC(C)=O)C(C)C)ccc1S(=O)(=O)Nc1ccc(Cl)c(OC(F)(F)F)c1 [Example 1.576]	≤ 200
CCOc1cc(NC(=O)[C@@H](O)C(C)(C)C)ccc1S(=O)(=O)Nc1cccc(OC(F)(F)F)c1 [Example 1.577]	≤ 200
CCCc1cc(C(=O)Nc2ccc(S(=O)(=O)Nc3cccc(C(F)(F)F)c3)c(OC)c2)n(C)n1 [Example 1.578]	750 to 2000
CCOc1cc(NC(=O)[C@@H](O)C(C)C)ccc1S(=O)(=O)Nc1cccc(Cl)c1C(F)(F)F [Example 1.579]	2000 to 20000
COc1ccc(NS(=O)(=O)c2ccc(NC(=O)c3ccnn3C)cc2OC)cc1C(F)(F)F [Example 1.580]	200 to 750
COc1cc(NC(=O)c2ccnn2C)ccc1S(=O)(=O)Nc1ccc2c(c1)OC(F)(F)O2 [Example 1.582]	750 to 2000
C=CC(=O)Nc1ccc(S(=O)(=O)Nc2cccc(OC(F)(F)F)c2)c(OCC)c1 [Example 1.583]	200 to 750
